Patent US9981975B2, “Pyrrolotriazine compounds as tam inhibitors” (Incyte Corporation, priority 2016, dated 2018)

What was measured:
Format in all cases: biochemical
phosphor-Axl = phosphor-Axl (Homo sapiens (Human), UniProt P30530); test: TAM Enzymatic Assay (HTRF), Axl; settings: recombinant autophosphorylated Axl, 60 min, room temperature
Tyro3 = Tyro3 (Homo sapiens (Human), UniProt Q06418); test: TAM Enzymatic Assay (HTRF), Tyro3; settings: Tyro3, 60 min, room temperature
Outline: (§1)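 HTRF kinase assay in 50 mM HEPES pH 7.5, 10 mM MgCl2, 1 mM EGTA, 0.01% NP-40, 2 mM DTT; compound in DMSO pre-dispensed, enzyme added, reaction started with substrate, 60 min at room temperature in the dark.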

c-Mer = c-Mer (Homo sapiens (Human), UniProt Q12866); test: TAM Enzymatic Assay (HTRF), Mer; settings: 60 min, room temperature
Outline: as §1

Tyro3, sequence (Q06418 41-890): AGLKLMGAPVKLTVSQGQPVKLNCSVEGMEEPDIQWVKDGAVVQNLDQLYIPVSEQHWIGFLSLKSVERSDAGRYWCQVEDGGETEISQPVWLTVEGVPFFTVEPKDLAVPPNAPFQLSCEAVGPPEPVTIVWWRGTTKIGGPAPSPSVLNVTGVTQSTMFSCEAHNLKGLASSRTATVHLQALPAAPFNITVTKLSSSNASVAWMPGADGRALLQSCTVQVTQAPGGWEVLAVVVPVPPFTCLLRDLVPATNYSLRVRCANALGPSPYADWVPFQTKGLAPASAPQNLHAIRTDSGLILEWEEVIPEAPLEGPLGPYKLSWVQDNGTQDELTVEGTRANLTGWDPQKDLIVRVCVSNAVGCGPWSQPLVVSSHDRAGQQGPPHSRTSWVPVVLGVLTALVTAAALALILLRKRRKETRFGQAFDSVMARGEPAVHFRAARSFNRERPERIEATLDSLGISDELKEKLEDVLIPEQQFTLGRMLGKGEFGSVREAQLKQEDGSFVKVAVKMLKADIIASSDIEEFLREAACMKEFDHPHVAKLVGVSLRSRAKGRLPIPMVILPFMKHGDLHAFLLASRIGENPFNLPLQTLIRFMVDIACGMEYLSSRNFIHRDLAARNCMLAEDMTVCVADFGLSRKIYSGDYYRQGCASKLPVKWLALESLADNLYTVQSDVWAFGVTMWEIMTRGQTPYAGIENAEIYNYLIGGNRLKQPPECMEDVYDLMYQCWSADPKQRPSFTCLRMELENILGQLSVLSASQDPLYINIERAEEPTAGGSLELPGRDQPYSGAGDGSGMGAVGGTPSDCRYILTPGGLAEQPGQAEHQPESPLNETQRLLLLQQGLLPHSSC
c-Mer, sequence (Q12866 21-999): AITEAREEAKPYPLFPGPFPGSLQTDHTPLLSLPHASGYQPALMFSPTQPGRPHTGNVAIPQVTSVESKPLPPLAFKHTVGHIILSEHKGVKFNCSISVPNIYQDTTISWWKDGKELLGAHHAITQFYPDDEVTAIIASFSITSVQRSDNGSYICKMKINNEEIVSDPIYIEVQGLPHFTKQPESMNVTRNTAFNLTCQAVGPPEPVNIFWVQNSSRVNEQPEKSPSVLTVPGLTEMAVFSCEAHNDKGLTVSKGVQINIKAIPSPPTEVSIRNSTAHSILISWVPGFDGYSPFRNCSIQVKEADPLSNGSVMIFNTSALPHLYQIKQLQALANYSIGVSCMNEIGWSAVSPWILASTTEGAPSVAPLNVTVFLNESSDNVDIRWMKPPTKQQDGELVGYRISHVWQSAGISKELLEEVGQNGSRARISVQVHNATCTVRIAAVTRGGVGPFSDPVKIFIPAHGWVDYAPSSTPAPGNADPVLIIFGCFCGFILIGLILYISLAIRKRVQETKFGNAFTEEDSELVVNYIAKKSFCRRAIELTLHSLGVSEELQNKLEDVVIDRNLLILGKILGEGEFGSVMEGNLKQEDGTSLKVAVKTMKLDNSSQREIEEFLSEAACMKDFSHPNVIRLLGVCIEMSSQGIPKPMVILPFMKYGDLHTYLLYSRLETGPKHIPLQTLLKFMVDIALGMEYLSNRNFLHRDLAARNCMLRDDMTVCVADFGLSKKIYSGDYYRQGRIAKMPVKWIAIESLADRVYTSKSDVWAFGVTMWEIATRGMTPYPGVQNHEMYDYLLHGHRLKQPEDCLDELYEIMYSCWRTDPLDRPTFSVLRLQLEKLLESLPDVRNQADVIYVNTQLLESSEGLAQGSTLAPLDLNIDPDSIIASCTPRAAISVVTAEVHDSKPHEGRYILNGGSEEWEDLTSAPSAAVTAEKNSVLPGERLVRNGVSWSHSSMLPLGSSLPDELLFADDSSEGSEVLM
phosphor-Axl, sequence (P30530 26-894): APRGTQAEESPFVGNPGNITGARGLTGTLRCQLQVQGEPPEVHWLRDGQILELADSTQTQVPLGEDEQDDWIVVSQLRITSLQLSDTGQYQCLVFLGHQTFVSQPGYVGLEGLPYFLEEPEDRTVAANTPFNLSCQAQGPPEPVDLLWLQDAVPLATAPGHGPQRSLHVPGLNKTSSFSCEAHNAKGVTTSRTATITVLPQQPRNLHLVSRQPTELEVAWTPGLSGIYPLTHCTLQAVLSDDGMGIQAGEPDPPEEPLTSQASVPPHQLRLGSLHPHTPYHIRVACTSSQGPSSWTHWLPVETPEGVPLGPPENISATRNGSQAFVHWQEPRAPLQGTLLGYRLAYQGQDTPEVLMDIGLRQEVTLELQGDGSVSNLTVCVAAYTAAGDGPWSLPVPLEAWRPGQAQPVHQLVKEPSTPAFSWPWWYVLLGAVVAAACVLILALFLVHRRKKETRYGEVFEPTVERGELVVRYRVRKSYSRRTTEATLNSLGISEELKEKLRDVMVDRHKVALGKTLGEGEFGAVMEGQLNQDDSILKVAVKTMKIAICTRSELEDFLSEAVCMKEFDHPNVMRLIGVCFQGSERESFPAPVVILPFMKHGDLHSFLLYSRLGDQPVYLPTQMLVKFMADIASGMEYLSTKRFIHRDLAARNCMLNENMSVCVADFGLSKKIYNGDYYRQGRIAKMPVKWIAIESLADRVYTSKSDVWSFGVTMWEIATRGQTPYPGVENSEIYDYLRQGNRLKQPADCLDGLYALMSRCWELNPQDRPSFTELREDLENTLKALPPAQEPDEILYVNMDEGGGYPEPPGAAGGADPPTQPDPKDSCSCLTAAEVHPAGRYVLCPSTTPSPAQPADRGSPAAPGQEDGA

Row | IC50 (phosphor-Axl) [nM] | IC50 (Tyro3) [nM] | IC50 (c-Mer) [nM] | Compound
1 | ≤ 5 | 10 to 100 | ≤ 5 | CC(C)C(=O)N1CCC(c2cc(-c3ccc(NC(=O)c4cc5c(n(-c6cncc(F)c6)c4=O)CCCC5=O)cc3)c3c(N)ncnn23)CC1 [Example 113, N-(4-(4-Amino-7-(1-isobutyrylpiperidin-4-yl)pyrrolo[1,2-f][1,2,4]triazin-5-yl)phenyl)-1-(5-fluoropyridin-3-yl)-2,5-dioxo-1,2,5,6,7,8-hexahydroquinoline-3-carboxamide]
2 | ≤ 5 | > 100 | ≤ 5 | Cc1c(-c2ccn(C)n2)cc(C(=O)Nc2ccc(-c3cc(C4CCN(C(=O)C(C)C)CC4)n4ncnc(N)c34)cc2)c(=O)n1-c1cccnc1 [Example 135, N-(4-(4-Amino-7-(1-isobutyrylpiperidin-4-yl)pyrrolo[2,1-f][1,2,4]triazin-5-yl)phenyl)-6-methyl-5-(1-methyl-1H-pyrazol-3-yl)-2-oxo-2H-[1,3′-bipyridine]-3-carboxamide]
3 | ≤ 5 | 10 to 100 | ≤ 5 | CS(=O)(=O)N1CCC(c2cc(-c3ccc(NC(=O)c4cccn(-c5ccccc5)c4=O)cc3F)c3c(N)ncnn23)CC1 [Example 42]
4 | ≤ 5 | 10 to 100 | ≤ 5 | N#C[C@H]1CC[C@@H](c2cc(-c3ccc(NC(=O)c4cccn(-c5ccccc5)c4=O)cc3F)c3c(N)ncnn32)CC1 [Example 30, N-{4-[4-Amino-7-(cis-4-cyanocyclohexyl)pyrrolo[2,1-f][1,2,4]triazin-5-yl]-3-fluorophenyl}-2-oxo-1-phenyl-1,2-dihydropyridine-3-carboxamide]
5 | ≤ 5 | 10 to 100 | ≤ 5 | CCN(C)C(=O)N1CCC(c2cc(-c3ccc(NC(=O)c4cn(C(C)C)c(=O)n(-c5ccccc5)c4=O)cc3)c3c(N)ncnn23)CC1 [Example 62, N-(4-(4-Amino-7-(1-(ethyl(methyl)carbamoyl)piperidin-4-yl)pyrrolo[1,2-f][1,2,4]triazin-5-yl)phenyl)-1-isopropyl-2,4-dioxo-3-phenyl-1,2,3,4-tetrahydropyrimidine-5-carboxamide]
6 | ≤ 5 | 10 to 100 | ≤ 5 | CC(C)C(=O)N1CCC(c2cc(-c3ccc(NC(=O)c4cn(C(C)C)c(=O)n(-c5cccnc5)c4=O)cc3)c3c(N)ncnn23)CC1 [Example 78, N-(4-(4-Amino-7-(1-isobutyrylpiperidin-4-yl)pyrrolo[1,2-f][1,2,4]triazin-5-yl)phenyl)-1-isopropyl-2,4-dioxo-3-(pyridin-3-yl)-1,2,3,4-tetrahydropyrimidine-5-carboxamide]
